Patent US20040122013A1, “Analogs of nocicettin” (priority 2002, published 2004)
Like-named read-outs stand apart in the source and are kept apart here.

Experiments:
[1] = test system: N/OFQ-sensitive isolated tissues; experiment: N/OFQ-sensitive electrically stimulated isolated tissues (mouse and rat vas deferens, guinea pig ileum)
Source text: The compounds of the Table have been evaluated in vitro in several N/OFQ-sensitive isolated tissues from various species such as the rat, mouse and guinea pig and in Chinese hamster ovary cells expressing the human recombinant NOP receptor (CHOhNop). The conditions adopted for studying the effects of the compounds in the electrically stimulated tissues (mouse and rat vas deferens, guinea pig ileum) are described in Bigoni et al. (Naunyn Schmiedebergs Arch Pharmacol 359, 160-7, 1999, herein incorporated by reference), whereas the conditions adopted for investigating the effects in CHOhNop cells are disclosed in Okawa et al. (Br J Pharmacol 127, 123-130, 1999, herein incorporated by reference).

[2] = target: T1, human recombinant NOP receptor (Homo sapiens, UniProt P41146); experiment: biochemical; conditions: CHOhNOP, stimulation of GTPγS binding
T1 construct: expressed in transfected cells; host or cells: Chinese hamster ovary (CHO) cells
T1 sequence (P41146 whole entry): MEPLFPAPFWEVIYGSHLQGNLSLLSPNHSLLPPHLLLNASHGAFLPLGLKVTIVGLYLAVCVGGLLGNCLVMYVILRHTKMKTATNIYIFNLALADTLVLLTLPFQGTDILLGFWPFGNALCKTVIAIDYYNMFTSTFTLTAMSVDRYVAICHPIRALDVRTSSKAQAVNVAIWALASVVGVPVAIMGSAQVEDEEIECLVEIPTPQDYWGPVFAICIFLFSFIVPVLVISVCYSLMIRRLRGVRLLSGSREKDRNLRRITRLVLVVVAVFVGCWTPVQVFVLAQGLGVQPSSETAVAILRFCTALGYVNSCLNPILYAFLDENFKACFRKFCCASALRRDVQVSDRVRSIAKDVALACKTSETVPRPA

[3] = target: T1, human recombinant NOP receptor; experiment: cell-based; conditions: CHOhNOP, cAMP inhibition
mouse vas deferens = experiment: Electrically induced twitch inhibition, mouse vas deferens (mVD)
guinea pig ileum = experiment: Electrically induced twitch inhibition, guinea pig ileum (gpI)
mice [4] = type: in vivo, mouse
mice [5] = experiment: Mouse tail withdrawal assay (pronociception); type: in vivo
[6] = target: T2, recombinant human NOP receptors expressed in HEK293 cells (Homo sapiens, UniProt P41146); conditions: Okada et al. 2000; cited from earlier work
T2 construct: host or cells: HEK293 cells
T2 sequence (P41146 whole entry): as above

NOP receptor = experiment: Antagonism of agonist effects by naloxone and [Nphe1]N/OFQ(1-13)NH2; conditions: tested vs the novel agonist compounds or vs N/OFQ
Procedure: In isolated tissues the compounds having structure [Phe^1Ψ(CO—NH)Gly^2] mimicked the effects of N/OFQ inducing similar maximal effects, thus acting as full agonists, while those with the structure [Phe^1Ψ(CH2—NH)Gly^2] behaved as partial agonists producing lower maximal effects than N/OFQ. […] Some of the compounds evaluated in vitro were also tested in a battery of in vivo assays of biological functions regulated by N/OFQ. In all the assays most of the analogs mimicked the effects evoked by the natural peptide. In the locomotor activity assay some compounds have been tested at 1 nmol i.c.v. dose. These mimicked the inhibitory effect of N/OFQ, however while the effects of the natural peptide lasted for about 20 min, those induced by some of the novel derivatives were still evident after several hours. […] Similar results were also obtained in the mouse tail withdrawal assay were the compounds mimicked the hyperalgesic actions of N/OFQ.

[7] = locomotor activity depression, i.c.v., mice

H-Phe-Ψ(CH2NH)-Gly-Gly-(pF)Phe-Thr-Gly-Ala-Arg-Lys-Ser-Ala-Arg-Lys-Arg-Lys-Asn-Gln-NH2 [b)]
Intrinsic activity (full or partial agonist) ([1]; isolated tissues, maximal effect compared with N/OFQ): partial agonist activity

C[C@H](NC(=O)CNC(=O)[C@@H](NC(=O)[C@H](Cc1ccc(F)cc1)NC(=O)CNC(=O)CNC(=O)[C@@H](N)Cc1ccccc1)[C@@H](C)O)C(=O)N[C@@H](CCCNC(=N)N)C(=O)N[C@@H](CCCCN)C(=O)N[C@@H](CO)C(=O)N[C@@H](C)C(=O)N[C@@H](CCCNC(=N)N)C(=O)N[C@@H](CCCCN)C(=O)N[C@@H](CCCNC(=N)N)C(=O)N[C@@H](CCCCN)C(=O)N[C@@H](CC(N)=O)C(=O)N[C@@H](CCC(N)=O)C(N)=O [UFP-102]
EC50 [2]: 0.0759 nM
Emax [2]: 12.26 ± 1.37
EC50 [3]: 0.0676 nM
Emax [3]: 104 ± 3%
Emax (mouse vas deferens): 94 ± 1%
pEC50 (mouse vas deferens): 9.36
Emax (guinea pig ileum): 55 ± 4%
pEC50 (guinea pig ileum): 8.98
Duration of action (mice [4]; [7]): >3 h
Effective dose (mice [4]; [7]): 0.1 nmol
Potency relative to N/OFQ (mice [4]; mouse, in vivo): more than 10 fold
Duration of action (mice [5]): >2 h
Effective dose (mice [5]): 0.1 nmol
Intrinsic activity (full or partial agonist) [1]: full agonist activity
Potency compared with N/OFQ [1]: higher than that of N/OFQ

CC(C)C[C@H](NC(=O)[C@H](CCCCN)NC(=O)[C@H](CCCNC(=N)N)NC(=O)[C@H](C)NC(=O)[C@H](CO)NC(=O)[C@H](CCCCN)NC(=O)[C@H](CCCNC(=N)N)NC(=O)[C@H](C)NC(=O)CNC(=O)[C@@H](NC(=O)[C@H](Cc1ccccc1)NC(=O)CNC(=O)CNC(=O)[C@@H](N)Cc1ccccc1)[C@@H](C)O)C(=O)N[C@@H](C)C(=O)N[C@@H](CC(N)=O)C(=O)N[C@@H](CCC(N)=O)C(=O)O [N/OFQ, reference compound]
Emax (mouse vas deferens): 91 ± 2%
pEC50 (mouse vas deferens): 7.77
Emax (guinea pig ileum): 56 ± 5%
pEC50 (guinea pig ileum): 8.04
Effective dose (mice [4]; [7]): 1 nmol
Duration of action (mice [5]): 0.25 h
Effective dose (mice [5]): 1 nmol

[Arg^14,Lys^15]N/OFQ
Potency relative to N/OFQ [6]: 17 fold

[Nphe^1]N/OFQ(1-13)NH2
pA2 (NOP receptor): 6.0-6.4

[(pI)Phe^4]-N/OFQ-NH2
Potency compared with N/OFQ ([1]; isolated tissues): lower
